Test results from PMC9065035, “Structural basis for the synthesis of the core 1 structure by C1GalT1” (Nature Communications, 2022).
Values joined by “and” are separate entries in the source; they are usually repeats but may differ in a detail not shown here. Equal values may be shown once. Read-outs that look alike come from different tables or passages of the source. Peptide text beside a SMILES is read from it. * marks the point of attachment. αGalNAc = CC(=O)N[C@@H]1[C@@H](O)[C@@H](O)[C@@H](CO)O[C@@H]1*

Columns and labels:
[1] = biological target: T1, DmC1GalT1^T43-Q388 (Drosophila melanogaster, UniProt Q7K237); assay: UDP-Glo glycosylation kinetics of DmC1GalT1 T43-Q388; settings: acceptor varied, 500 µM UDP-Gal, 500 nM enzyme, pH 7.5, 30 min 37 °C; ± standard error, n = 2
T1 sequence (Q7K237 43-388): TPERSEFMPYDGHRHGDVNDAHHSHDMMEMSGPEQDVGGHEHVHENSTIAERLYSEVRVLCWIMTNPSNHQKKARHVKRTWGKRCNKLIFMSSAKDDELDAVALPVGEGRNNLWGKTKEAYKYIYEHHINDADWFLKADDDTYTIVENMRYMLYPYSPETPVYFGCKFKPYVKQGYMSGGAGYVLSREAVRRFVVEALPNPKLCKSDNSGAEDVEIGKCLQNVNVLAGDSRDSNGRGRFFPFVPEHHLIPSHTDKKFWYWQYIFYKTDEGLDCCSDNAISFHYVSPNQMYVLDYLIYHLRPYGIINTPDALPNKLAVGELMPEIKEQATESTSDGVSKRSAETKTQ

[2] = biological target: T1, DmC1GalT1^T43-Q388; assay: Isothermal titration calorimetry (ITC); type: binding; parameters: made in house
Method: ITC was used to characterize the interaction of DmC1GalT1^T43-Q388 with UDP, APDT*RP with and without UDP, APDTRP with UDP, and P4/P7 with and without UDP. All experiments were carried out in an Auto-iTC200 (Microcal, GE Healthcare) at 20 °C. The titration of DmC1GalT1^T43-Q388 with UDP was carried out at 100 μM of the enzyme with 800 μM UDP in 25 mM TRIS pH 7.5, 150 mM NaCl and 1 mM MnCl2. The titrations with APDT*RP and P4/P7 in the absence of UDP were carried out at 60 μM of the enzyme with 2 mM P4/P7 in 25 mM TRIS pH 7.5, 150 mM NaCl and 1 mM MnCl2. To determine the Kds for APDT*RP, APDTRP and P4/P7 under an excess of UDP, the experiments were made in 25 mM TRIS pH 7.5, 150 mM NaCl, 1 mM UDP and 1 mM MnCl2. The concentration of the enzyme was 60 μM for the titrations of APDT*RP and APDTRP and 50 μM for the titration with P4/P7. The concentration of the (glyco)peptides was 2 mM in all the ITC experiments. The experiments were performed in duplicate. Data integration, correction and analysis were carried out in Origin 7 (Microcal). The data were fit to a one-site equilibrium-binding model. Stoichiometry (n) of binding in all cases was ~1:1 except for UDP whose n = 0.4.

[3] = Activity of DmC1GalT1 mutants (UDP-Glo); type: biochemical, Drosophila melanogaster; settings: 500 µM UDP-Gal, 500 µM APDT*RP
Text: The DNA sequence encoding amino acid residues of the DmC1GalT1 (aa T43-Q388) was codon optimized and synthesized by GenScript (USA) for expression in HEK293 cells (GIBCO). The construct, containing at the 5′-end a recognition sequence for AgeI, and at the 3′-end a recognition sequence for KpnI, was cloned into a pHLSec plasmid that contained a sequence encoding a 6xHis tag at the 3′-end followed by a stop codon, rendering the vector pHLSec-DmC1GalT1-6His. The cloning of the construct into pHLSec was performed by GenScript. All mutants in DmC1GalT1 (R152A, Y213A, Y218A, D255A, W300A and Y325A) were generated following a standard site-directed mutagenesis protocol by GenScript using the vector pHLSec-DmC1GALT1-6His. pHLSec-DmC1GalT1-6His and all the plasmids encoding for the different mutants were transfected into HEK293 cell line as described below. For DNA amplification, all plasmids were transformed in E. coli DH5α cells and extracted with PureLink™ Expi Endotoxin-Free Giga Plasmid Purification Kit (Invitrogen) according to the manufacturer’s instructions. Cells were grown in suspension in a humidified 37 °C and 8% CO2 incubator with rotation at 125 rpm. Transfection was performed at a cell density of 2.5 × 10^6 cell/mL in fresh media F17 serum-free media (Gibco) with 2% Glutamax and 0.1% Kolliphor® P 188. For each 150 mL of culture, 450 μg of the plasmid (1 μg/μL) was mixed with 135 μL of sterilized 1.5 M NaCl. This mixture was added to each 150 mL cell culture flask and incubated for 5 min in the incubator. […] Cells were diluted 1:1 with pre-warmed media supplemented with valproic acid 24 h post-transfection to a final concentration of 2.2 mM. Then, cells were harvested 6 days post-transfection by spinning down at 300 × g for 5 min, after which the supernatants were collected and centrifuged at 4000 × g for 15 min. Supernatant was dialyzed against buffer A and loaded into a His-Trap Column (GE Healthcare). Protein was eluted with an imidazol gradient in buffer A from 10 mM up to 400 mM. Buffer exchange to buffer C was carried out using a HiPrep 26/10 Desalting Column (GE Healthcare). The isolated DmC1GalT1-His and its mutants were then loaded in HiLoad 26/60 Superdex 75 Colum (GE Healthcare), previously equilibrated with buffer C.

[4] = UDP titration, 1 mM MnCl2, 20 °C

With `CC(=O)N[C@H]1[C@@H](O[C@H](C)[C@H](NC(=O)[C@H](CC(=O)O)NC(=O)[C@@H]2CCCN2C(=O)[C@H](C)N)C(=O)N[C@@H](CCCNC(=N)N)C(=O)N2CCC[C@H]2C(N)=O)O[C@H](CO)[C@H](O)[C@@H]1O` [APDT*RP] the “kcat app/Km app (catalytic efficiency)” value [1] was 300 ± 67 M⁻¹ s⁻¹ and 301.5 M⁻¹ s⁻¹, the Kd ([2]; Kd, excess UDP (1 mM UDP, 1 mM MnCl2), 2 mM (glyco)peptide, 50–60 µM enzyme, 25 mM TRIS pH 7.5, 150 mM NaCl, 20 °C, one-site fit ± fit error, n = 2) was 173 µM and the Kd ([2]; absence of UDP, 2 mM glycopeptide, 60 µM enzyme, 25 mM TRIS pH 7.5, 150 mM NaCl, 1 mM MnCl2, 20 °C, one-site fit ± fit error, n = 2) was “Not measurable under our conditions”.

With `CC(=O)N[C@H]1[C@@H](O[C@H](C)[C@H](NC(=O)[C@H](C)NC(=O)[C@H](C)NC(=O)[C@@H]2CCCN2)C(=O)NCC(=O)N2CCC[C@H]2C(=O)N[C@@H](Cc2ccc(O)cc2)C(N)=O)O[C@H](CO)[C@H](O)[C@@H]1O` [P4] (H-PAAT(αGalNAc)GPY-NH2) the “kcat app/Km app (catalytic efficiency)” value [1] was 1130 ± 100 M⁻¹ s⁻¹ and 1127 M⁻¹ s⁻¹ and the Kd ([2]; Kd, absence of UDP, 2 mM glycopeptide, 60 µM enzyme, 25 mM TRIS pH 7.5, 150 mM NaCl, 1 mM MnCl2, 20 °C, one-site fit ± fit error, n = 2) was 41 µM.

With Y325A: DmC1GalT1 Ala mutant of Tyr325 the “decrease in activity with respect to the WT” value [3] was 25 fold.

For `O=c1ccn([C@@H]2O[C@H](COP(=O)(O)OP(=O)(O)O)[C@@H](O)[C@H]2O)c(=O)[nH]1` [UDP], the Kd [2] was 18.4 µM, the “binding, fold stronger than binding of APDT*RP” value ([2]; ITC, relative to APDT*RP) was ~ 9.5 fold and the “n (stoichiometry of binding)” value [2, 4] was 0.4. For the same molecule, the ΔH [2, 4] was -4.264 ± 0.471 kcal/mol.

In the case of W300A: DmC1GalT1 Ala mutant of Trp300, the “activity of the mutant” value [3] is reported as “inactive”.
